Assay results: patent US10988523B2, “Modified lipidated Relaxin B chain peptides and their therapeutic use” (Sanofi, priority 2018, dated 2021)
*1 amine or outer side, *2 acyl side, *3 side chain or, on linkers, in order; H or OH if unused. Where a SMILES comes first, the peptide text is derived from it. Side-chain parts run from the residue outwards. [ ]: non-standard residue; d: D form. The star is where a group is joined. γGlu = O=C(O)[C@H](CCC(=O)[*:2])N[*:1]; 1Nal = N[C@@H](Cc1cccc2ccccc12)C(=O)O; Stearoyl = CCCCCCCCCCCCCCCCCC(=O)*; Nle = CCCC[C@H](N)C(=O)O; AEEA = NCCOCCOCC(=O)O; Aib = CC(C)(N)C(=O)O

Molecular target: T1, RXFP1 (Homo sapiens, UniProt Q9HBX9)
T1 construct: OVCAR5 cells expressing endogenous RXFP1; endogenous in cells; host or cells: OVCAR5 cells
T1 sequence (Q9HBX9 1-757): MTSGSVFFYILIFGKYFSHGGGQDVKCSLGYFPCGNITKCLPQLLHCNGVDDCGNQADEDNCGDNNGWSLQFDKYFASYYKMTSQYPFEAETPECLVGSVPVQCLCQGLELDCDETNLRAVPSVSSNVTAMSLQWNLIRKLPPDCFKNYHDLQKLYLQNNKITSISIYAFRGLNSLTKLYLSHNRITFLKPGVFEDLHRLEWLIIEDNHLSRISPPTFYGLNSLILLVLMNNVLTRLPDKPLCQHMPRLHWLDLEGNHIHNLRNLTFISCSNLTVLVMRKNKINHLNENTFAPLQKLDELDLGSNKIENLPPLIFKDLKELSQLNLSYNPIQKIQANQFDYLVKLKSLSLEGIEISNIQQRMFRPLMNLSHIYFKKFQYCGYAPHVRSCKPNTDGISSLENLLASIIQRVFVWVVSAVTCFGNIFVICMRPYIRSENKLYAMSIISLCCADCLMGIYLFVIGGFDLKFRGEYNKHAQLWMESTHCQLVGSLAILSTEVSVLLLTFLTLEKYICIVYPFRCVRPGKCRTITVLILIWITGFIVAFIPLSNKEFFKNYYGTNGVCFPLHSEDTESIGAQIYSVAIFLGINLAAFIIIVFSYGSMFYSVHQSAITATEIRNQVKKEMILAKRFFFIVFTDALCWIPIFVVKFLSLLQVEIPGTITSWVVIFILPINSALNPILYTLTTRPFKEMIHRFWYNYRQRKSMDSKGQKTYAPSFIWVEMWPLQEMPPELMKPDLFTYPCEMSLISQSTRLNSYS
Assay: OVCAR5 cAMP assay (HTRF), RXFP1 agonist activity
Format: cell-based
Conditions: for EC50: OVCAR5 cells, cAMP HTRF, read-out: EC50 (nM), OVCAR 5 cells (cAMP); for Emax: OVCAR-5, maximal cAMP relative to H2-relaxin maximum (100%), read-out: EMax, OVCAR 5 cells (cAMP)
Method in brief: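 OVCAR5 cells (endogenous RXFP1) pretreated 40 min at 37° C with 1 mM IBMX, then exposed to peptides in serum-free medium for 30 min at 37° C. Lysate cAMP read by HTRF; EC50 from variable-slope sigmoidal fit; Emax as % of H2-relaxin maximal cAMP in same run.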

Structure (SMILES)	EC50	Emax
CCCCCCCCCCCCCCCCCC(=O)N[C@@H](CCC(=O)N[C@@H](CCC(=O)N[C@@H](CCC(=O)NCCOCCOCC(=O)NCCOCCOCC(=O)NCCOCCOCC(=O)NCCCC[C@H](NC(=O)[C@H](CC(C)C)NC(=O)[C@H](CCCCN)NC(=O)[C@H](CCCNC(=N)N)NC(=O)C(C)(C)NC(=O)[C@H](CO)NC(=O)[C@H](Cc1c[nH]c2ccccc12)NC(=O)[C@@H](NC(=O)[C@H](CO)NC(=O)[C@H](CCCC)NC(=O)CNC(=O)[C@H](CCC(=O)O)NC(=O)C(C)(C)NC(=O)C(C)(C)NC(=O)[C@@H](NC(=O)[C@H](CCCCNC(C)=O)NC(=O)[C@H](C)NC(=O)[C@H](CCCNC(=N)N)NC(=O)[C@@H](NC(=O)[C@H](CCCCN)NC(=O)[C@H](CCC(=O)O)NC(=O)[C@H](CCCNC(=N)N)NC(=O)CNC(=O)[C@H](CCC(=O)O)NC(=O)[C@H](CC(C)C)NC(C)=O)C(C)C)[C@@H](C)CC)[C@@H](C)O)C(N)=O)C(=O)O)C(=O)O)C(=O)O [compound 86] (Ac-LEGREKVRAK(Ac)I[Aib][Aib]EG[Nle]STWS[Aib]RKLK([AEEA-AEEA-AEEA-γGlu-γGlu-γGlu-Stearoyl])-NH2)	0.69 nM	79%
CCCCCCCCCCCCCCCCCC(=O)N[C@@H](CCC(=O)N[C@@H](CCC(=O)N[C@@H](CCC(=O)NCCOCCOCC(=O)NCCOCCOCC(=O)NCCOCCOCC(=O)NCCCC[C@H](NC(=O)[C@H](CC(C)C)NC(=O)[C@H](CCCCN)NC(=O)[C@H](CCCNC(=N)N)NC(=O)C(C)(C)NC(=O)[C@H](CO)NC(=O)[C@H](Cc1cccc2ccccc12)NC(=O)[C@@H](NC(=O)[C@H](CO)NC(=O)[C@H](CCCC)NC(=O)CNC(=O)[C@H](CCC(=O)O)NC(=O)C(C)(C)NC(=O)C(C)(C)NC(=O)[C@@H](NC(=O)[C@H](CCCCNC(C)=O)NC(=O)[C@H](C)NC(=O)[C@H](CCCNC(=N)N)NC(=O)[C@@H](NC(=O)[C@H](CCCCN)NC(=O)[C@H](CCC(=O)O)NC(=O)[C@H](CCCNC(=N)N)NC(=O)CNC(=O)[C@H](CCC(=O)O)NC(=O)[C@H](CC(C)C)NC(C)=O)C(C)C)[C@@H](C)CC)[C@@H](C)O)C(N)=O)C(=O)O)C(=O)O)C(=O)O [compound 87] (Ac-LEGREKVRAK(Ac)I[Aib][Aib]EG[Nle]ST[1Nal]S[Aib]RKLK([AEEA-AEEA-AEEA-γGlu-γGlu-γGlu-Stearoyl])-NH2)		71%
CCCCCCCCCCCCCCCCCC(=O)N[C@@H](CCC(=O)N[C@@H](CCC(=O)N[C@@H](CCC(=O)N[C@@H](CCC(=O)NCCOCCOCC(=O)NCCOCCOCC(=O)NCCOCCOCC(=O)NCCCC[C@H](NC(=O)[C@H](CCCCN)NC(=O)[C@H](CCCCN)NC(=O)[C@H](CCCNC(=N)N)NC(=O)C(C)(C)NC(=O)[C@H](CO)NC(=O)[C@H](Cc1c[nH]c2ccccc12)NC(=O)[C@@H](NC(=O)[C@H](CO)NC(=O)[C@H](CCCC)NC(=O)CNC(=O)[C@H](CCC(=O)O)NC(=O)C(C)(C)NC(=O)C(C)(C)NC(=O)[C@@H](NC(=O)[C@H](CCC(N)=O)NC(=O)[C@H](C)NC(=O)[C@H](CCCNC(=N)N)NC(=O)[C@@H](NC(=O)[C@H](CCCCN)NC(=O)[C@H](CCC(=O)O)NC(=O)[C@H](CCCNC(=N)N)NC(=O)CNC(=O)[C@H](CCC(=O)O)NC(=O)[C@H](CC(C)C)NC(C)=O)C(C)C)[C@@H](C)CC)[C@@H](C)O)C(N)=O)C(=O)O)C(=O)O)C(=O)O)C(=O)O [compound 88] (Ac-LEGREKVRAQI[Aib][Aib]EG[Nle]STWS[Aib]RKKK([AEEA-AEEA-AEEA-γGlu-γGlu-γGlu-γGlu-Stearoyl])-NH2)	0.11 nM	74%
CCCCCCCCCCCCCCCCCC(=O)N[C@@H](CCC(=O)N[C@@H](CCC(=O)N[C@@H](CCC(=O)N[C@@H](CCC(=O)NCCOCCOCC(=O)NCCOCCOCC(=O)NCCOCCOCC(=O)NCCCC[C@H](NC(=O)[C@H](CCCCN)NC(=O)[C@H](CCCCN)NC(=O)[C@H](CCCNC(=N)N)NC(=O)C(C)(C)NC(=O)[C@H](CO)NC(=O)[C@H](Cc1c[nH]c2ccccc12)NC(=O)[C@@H](NC(=O)[C@H](CO)NC(=O)[C@H](CCCC)NC(=O)CNC(=O)[C@H](CCC(=O)O)NC(=O)C(C)(C)NC(=O)C(C)(C)NC(=O)[C@@H](NC(=O)[C@H](CCCCNC(C)=O)NC(=O)[C@H](C)NC(=O)[C@H](CCCNC(=N)N)NC(=O)[C@@H](NC(=O)[C@H](CCCCN)NC(=O)[C@H](CCC(=O)O)NC(=O)[C@H](CCCNC(=N)N)NC(=O)CNC(=O)[C@H](CCC(=O)O)NC(=O)[C@H](CC(C)C)NC(C)=O)C(C)C)[C@@H](C)CC)[C@@H](C)O)C(N)=O)C(=O)O)C(=O)O)C(=O)O)C(=O)O [compound 89] (Ac-LEGREKVRAK(Ac)I[Aib][Aib]EG[Nle]STWS[Aib]RKKK([AEEA-AEEA-AEEA-γGlu-γGlu-γGlu-γGlu-Stearoyl])-NH2)	0.03 nM	79%
CCCCCCCCCCCCCCCCCC(=O)N[C@@H](CCC(=O)N[C@@H](CCC(=O)N[C@@H](CCC(=O)NCCOCCOCC(=O)NCCOCCOCC(=O)NCCOCCOCC(=O)NCCOCCOCC(=O)NCCCC[C@H](NC(=O)[C@H](CCCCNC(C)=O)NC(=O)[C@H](CCCCN)NC(=O)[C@H](CCCNC(=N)N)NC(=O)C(C)(C)NC(=O)[C@H](CO)NC(=O)[C@H](Cc1c[nH]c2ccccc12)NC(=O)[C@@H](NC(=O)[C@H](CO)NC(=O)[C@H](CCCC)NC(=O)CNC(=O)[C@H](CCC(=O)O)NC(=O)C(C)(C)NC(=O)C(C)(C)NC(=O)[C@@H](NC(=O)[C@H](CCCCNC(C)=O)NC(=O)[C@H](C)NC(=O)[C@H](CCCNC(=N)N)NC(=O)[C@@H](NC(=O)[C@H](CCCCN)NC(=O)[C@H](CCC(=O)O)NC(=O)[C@H](CCCNC(=N)N)NC(=O)CNC(=O)[C@H](CCC(=O)O)NC(=O)[C@H](CC(C)C)NC(C)=O)C(C)C)[C@@H](C)CC)[C@@H](C)O)C(N)=O)C(=O)O)C(=O)O)C(=O)O [compound 90] (Ac-LEGREKVRAK(Ac)I[Aib][Aib]EG[Nle]STWS[Aib]RKK(Ac)K([AEEA-AEEA-AEEA-AEEA-γGlu-γGlu-γGlu-Stearoyl])-NH2)	0.07 nM	89%
CCCCCCCCCCCCCCCCCC(=O)N[C@@H](CCC(=O)N[C@@H](CCC(=O)N[C@@H](CCC(=O)NCCOCCOCC(=O)NCCOCCOCC(=O)NCCOCCOCC(=O)NCCOCCOCC(=O)NCCCC[C@H](NC(=O)[C@H](CCCCN)NC(=O)[C@H](CCCCN)NC(=O)[C@H](CCCNC(=N)N)NC(=O)C(C)(C)NC(=O)[C@H](CO)NC(=O)[C@H](Cc1c[nH]c2ccccc12)NC(=O)[C@@H](NC(=O)[C@H](CO)NC(=O)[C@H](CCCC)NC(=O)CNC(=O)[C@H](CCC(=O)O)NC(=O)C(C)(C)NC(=O)C(C)(C)NC(=O)[C@@H](NC(=O)[C@H](CCC(N)=O)NC(=O)[C@H](C)NC(=O)[C@H](CCCNC(=N)N)NC(=O)[C@@H](NC(=O)[C@H](CCCCN)NC(=O)[C@H](CCC(=O)O)NC(=O)[C@H](CCCNC(=N)N)NC(=O)CNC(=O)[C@H](CCC(=O)O)NC(=O)[C@H](CC(C)C)NC(C)=O)C(C)C)[C@@H](C)CC)[C@@H](C)O)C(N)=O)C(=O)O)C(=O)O)C(=O)O [compound 92] (Ac-LEGREKVRAQI[Aib][Aib]EG[Nle]STWS[Aib]RKKK([AEEA-AEEA-AEEA-AEEA-γGlu-γGlu-γGlu-Stearoyl])-NH2)	0.26 nM	82%
